The subject of experiment [1] is rVX-4. The settings on record: E-64 1 μM, in presence of pepstatin A, pH 5.0-7.0, rVX-4 50 nM, 3 h at 37° C.
Method: Recombinant PvPMs expressed in E. coli cells were purified by Ni-NTA chromatography (Qiagen) and refolded as described above. rVX-4 (50 nM) was incubated with PvPMs (20 μg each) in 100 mM sodium acetate (pH 5.0-5.5), 100 mM sodium phosphate (pH 6.0-6.5), or 100 mM Tris-HCl (pH 7.0-7.5) supplemented with 10 mM DTT for 3 h. The experiments were also performed in the presence of E-64 (1 μM) and/or pepstatin A (10 μM, Sigma-Aldrich).
The inventors examined possible roles for VX-4 during maturation of recombinant PvPM4 (rPvPM4), which was expressed in E. coli as above, and the results are shown in FIG. 5(A). […] Recombinant PvPM 4 (20 μg) was incubated with rVX-4 (50 nM) supplemented with 10 mM DTT at different pH values with or without pepstatin A (PepA, 10 μM) or E-64 (1 μM) for 3 h at 37° C. The reactants were analyzed by 12% SDS-PAGE.
For experiment [2], the system named is rVX-4. The conditions noted are these: fully processed 28 kDa rVX-4.
Method: The purified rVX-4 was refolded and activated, and aliquots collected every 30 min were analyzed by 12% SDS-PAGE with Coomassie staining (left). The proteolytic activity of fully processed rVX-4 was analyzed by a gelatin gel-zymogram (right).
For activity gel electrophoresis, the obtained refolded rVX-4 was mixed with SDS-PAGE sample buffer lacking 2-mercaptoethanol and subjected to 12% SDS-PAGE co-polymerized with 0.1% gelatin. The gel was washed with 2% Triton X-100 (30 min), incubated overnight with 100 mM sodium acetate (pH 5.5) containing 10 mM DTT at 37° C. and stained with Coomassie Blue.
In experiment [3] the test system is rVX-4. The conditions noted are these: rVX-4 1 μM, pH 5.5, 6.5, 7.5, 30 min room temperature, substrate Z-LR-MCA.
Method: The optimal pH was assessed in 100 mM sodium acetate (pH 4.5-5.5), 100 mM sodium phosphate (pH 6.0-6.5) and 100 mM Tris-HCl (pH 7.0-8.5). The enzymes (50 nM) were added to each buffer supplemented with 10 mM DTT and 5 μM Z-L-phenylalanyl-L-arginine 4-methyl-coumaryl-7-amide (Z-FR-MCA), Z-leucyl-L-arginine-MCA (Z-LR-MCA), or Z-L-arginyl-L-arginine 4-methyl-coumaryl-7-amide (Z-RR-MCA) (Peptide International). The appropriate buffers were separately employed as controls at each pH. Enzyme activity was measured as described above. The effects of reducing agents were examined under various concentrations of GSH, and pH stability was examined at pH 5.0 and 8.0 by incubating rVX-4 at 37° C. in the appropriate buffer.
Residual activities (%) were determined using Z-LR-MCA as a substrate.
Experiment [4] has as its system VX-4. As to the kind of experiment: Determination of pH optimum of enzyme activity against peptide substrates. Type of experiment: biochemical, Plasmodium vivax. The conditions noted are these: 5 μM substrate, 10 mM DTT, 37° C., pH 4.5-8.5. As for the experimental part:
Enzyme activity was measured as described above.
FIG. 3(C) relates to determination of pH optimum. […] Activity was measured at 37° C. each against Z-FR-MCA (▪), Z-LR-MCA (∘), and Z-RR-MCA (●). Maximal activity was presented as 100%. As shown in FIG. 3(C), the enzymatic activity was highest at pH 5.5. The pH-optimum was substantially different with a substrate containing a basic AA at P2 (Z-RR-MCA) with maximal activity at pH 6.5, and activity seen above pH 8.

For the next experiment, the system named is VX-2. As to the kind of experiment: Substrate hydrolysis kinetics for vivapains (peptide-MCA substrates). Type of experiment: biochemical, Plasmodium vivax. The conditions noted are these: pH 5.5, 6.5, 7.5. The procedure:
(§1) Cysteine protease activity was ascertained by the hydrolysis of benzyloxycarbonyl-L-leucyl-L-arginine 4-methyl-coumaryl-7-amide (Z-LR-MCA) (Peptide International, Louisville, Ky.). Enzyme (xVX, 30 μl; 200 nM) was added to 100 mM sodium acetate (220 μl, pH 5.5) containing 5 μM Z-LR-MCA and 10 mM DTT. The release of fluorescence was assessed at excitation and emission wavelengths of 355 nm and 460 nm with a SpectraMAX Gemini fluorometer (Molecular Devices, Sunnyvale, Calif.).
(§2) The release of MCA was monitored over 10 min at room temperature as described above. Activities were compared as fluorescence over time. The kinetic constants Km and Vmax were determined using GraphPad software.

In experiment [5] the test system is VX-4. The experiment is described as above. Format: biochemical, Plasmodium vivax. As for the experimental part:
as §1, §2

In another experiment the test system is VX-3. The description is as above. The conditions noted are these: pH 5.5, 6.5, 7.5. Format: biochemical, Plasmodium vivax. As for the experimental part: Cysteine protease activity was ascertained by the hydrolysis of benzyloxycarbonyl-L-leucyl-L-arginine 4-methyl-coumaryl-7-amide (Z-LR-MCA) (Peptide International, Louisville, Ky.). […] The release of fluorescence was assessed at excitation and emission wavelengths of 355 nm and 460 nm with a SpectraMAX Gemini fluorometer (Molecular Devices, Sunnyvale, Calif.).
as §2

Experiment [6] relates to VX-4 mutants containing E180A. As to the kind of experiment: Activity of mutant VX-4s against peptide substrates. Format: biochemical, Plasmodium vivax. The settings on record: 100 mM Tris-HCl pH 7.5, 10 mM DTT, 37° C. The procedure: Site-directed mutagenesis was performed using a QuickChange II Site-Directed Mutagenesis Kit (Stratagene, Calif.). A pair of complementary primers with 39 bases was designed and a mutation to replace Ala90 to Ile (A90I), Gly154 to Ser (G154S) or Glu180 to Ala (E180A) was placed in the middle of the primers, as follows: […]
Parental DNA inserted in pQE-30 (Qiagen, Calif.) as prepared in Example 2 was amplified using Pfu Ultra HF DNA polymerase with these primers for 16 cycles in a DNA thermal cycler (Perkin-Elmer). After digestion of the parental DNA with Dpn I, the amplified DNA with nucleotide substitution was incorporated and transformed into E. coli XL1-Blue (Stratagene). The mutations were verified by DNA sequencing. Double and triple point mutagenesis of A90I, G154S, and E180A were also done as described above. Each mutant plasmid was transformed into competent E. coli M15 (pREP4) cells (Qiagen). Each recombinant protein was individually expressed, purified and refolded as described above.
In assays against peptide substrates, all of the mutants harboring A901 and G154S by single or multiple substitutions maintained the pH-dependent substrate specificity of wild-type VX-4. Conversely, those containing E180A lost activity against Z-RR-MCA at pH 7.5 (FIG. 4(C)). […]

The test system of experiment [7] is P. vivax plasmepsin 4 (PvPM4). Kind of experiment: Autocatalytic processing of recombinant PvPM4 (SDS-PAGE). Format: biochemical, Plasmodium vivax. The settings on record: pepstatin A 10 μM, 3 h at 37° C. As for the experimental part: The reactants were analyzed by 12% SDS-PAGE.
Setting [8] is: rVX-4, pH 7.5 compared with pH 5.5.

Each structure is given as a SMILES string. Square brackets hold non-standard residues; d marks the D form. Peptide text beside a SMILES is read from it. * marks the point of attachment. Sta = CC(C)C[C@H](N)[C@@H](O)CC(=O)O; AMC = Cc1cc(=O)oc2cc(N*)ccc12; Isovaleryl = CC(C)CC(=O)*; Cbz = O=C(OCc1ccccc1)*

In the case of `CC(C)C[C@H](NC(=O)[C@H]1O[C@@H]1C(=O)O)C(=O)NCCCCN=C(N)N` (relative stereo) [E-64, trans-epoxysuccinyl-L-leuciloamido-(4-guanidino) butane], the “effect on rVX-4 cleavage of rPvPM4” value with rVX-4 [1] was “specifically and significantly inhibited”. Moreover, the “inhibition of protease activity in gelatin-gel electrophoresis” value in the experiment with rVX-4 [2] was “completely inhibited”. Also, the “E-64 concentration needed to inhibit rVX-4 depending on pH” value in the experiment with rVX-4 [3] is reported as “increased concentrations of E-64 to inhibit rVX-4 at higher pH”.

`Cc1cc(=O)oc2cc(NC(=O)[C@H](CCCNC(=N)N)NC(=O)[C@H](Cc3ccccc3)NC(=O)OCc3ccccc3)ccc12` [Z-FR-MCA, benzyloxycarbonyl-L-phenylalanyl-L-arginine 4-methyl-coumaryl-7-amide] (Cbz-Phe-Arg-{AMC}): in the experiment on VX-4 [4], the “pH of maximal enzyme activity” value was found to be 5.5. In the experiment on VX-2, the “hydrolysis by rVX-2” value is reported as “could not hydrolyze”. In addition, in the experiment with VX-4 [5] (pH 7.5), the “hydrolysis by rVX-4” value is listed as “not hydrolyzed”. Besides, the “hydrolysis by rVX-3” value with VX-3 was “could not hydrolyze”.

`Cc1cc(=O)oc2cc(NC(=O)[C@H](CCCNC(=N)N)NC(=O)[C@H](CC(C)C)NC(=O)OCc3ccccc3)ccc12` [Z-LR-MCA, benzyloxycarbonyl-L-leucyl-L-arginine 4-methyl-coumaryl-7-amide]: the “pH of maximal enzyme activity” value with VX-4 [4] was found to be 5.5. In addition, the “decrease of kcat/Km at pH 7.5” value in the experiment with VX-4 [5] (setting [8]) was found to be 5.6 fold.

For the molecule `Cc1cc(=O)oc2cc(NC(=O)[C@H](CCCNC(=N)N)NC(=O)[C@H](CCCNC(=N)N)NC(=O)OCc3ccccc3)ccc12` [Z-RR-MCA, benzyloxycarbonyl-L-arginyl-L-arginine 4-methyl-coumaryl-7-amide] (Cbz-Arg-Arg-{AMC}), the “pH of maximal enzyme activity” value in the experiment with VX-4 [4] came out at 6.5. Besides, the “hydrolysis by rVX-2” value in the experiment on VX-2 is given as “could not hydrolyze”. For the same molecule, the “increase of kcat/Km at pH 7.5” value in the experiment on VX-4 [5] (setting [8]) came to 2.6 fold. For the same molecule, in experiment [6], the “activity of E180A-containing VX-4 mutants against substrate” value is “lost activity”. Further, the “hydrolysis by rVX-3” value with VX-3 is on record as “could not hydrolyze”.

Consider `CC(C)CC(=O)N[C@H](C(=O)N[C@H](C(=O)N[C@@H](CC(C)C)[C@@H](O)CC(=O)N[C@@H](C)C(=O)N[C@@H](CC(C)C)[C@@H](O)CC(=O)O)C(C)C)C(C)C` [pepstatin A] (Isovaleryl-VV[Sta]A[Sta]-OH), for which, in experiment [7], the “effect on autocatalytic processing of rPvPM4” value is recorded as “completely blocked”.

The record behind these values is patent publication US9677063B2, “Use of a cysteine protease of plasmodium vivax” (SAMSUNG ELECTRONICS CO., LTD., priority 2009, dated 2017).
